“Also recorded” adds a separate entry of the source.
Columns and labels:
STAT1 = target: T1, STAT1 (Homo sapiens, UniProt P42224); test: IFNγ-stimulated phosphoStat1 in BT20 cells; assay type: cell-based; parameters: endogenous in cells; host or cells: BT20 breast tumor cells; conditions: 5 μM, 2 h, then IFNγ 25 ng/mL, 20 and 45 min
T1 sequence (P42224 1-750): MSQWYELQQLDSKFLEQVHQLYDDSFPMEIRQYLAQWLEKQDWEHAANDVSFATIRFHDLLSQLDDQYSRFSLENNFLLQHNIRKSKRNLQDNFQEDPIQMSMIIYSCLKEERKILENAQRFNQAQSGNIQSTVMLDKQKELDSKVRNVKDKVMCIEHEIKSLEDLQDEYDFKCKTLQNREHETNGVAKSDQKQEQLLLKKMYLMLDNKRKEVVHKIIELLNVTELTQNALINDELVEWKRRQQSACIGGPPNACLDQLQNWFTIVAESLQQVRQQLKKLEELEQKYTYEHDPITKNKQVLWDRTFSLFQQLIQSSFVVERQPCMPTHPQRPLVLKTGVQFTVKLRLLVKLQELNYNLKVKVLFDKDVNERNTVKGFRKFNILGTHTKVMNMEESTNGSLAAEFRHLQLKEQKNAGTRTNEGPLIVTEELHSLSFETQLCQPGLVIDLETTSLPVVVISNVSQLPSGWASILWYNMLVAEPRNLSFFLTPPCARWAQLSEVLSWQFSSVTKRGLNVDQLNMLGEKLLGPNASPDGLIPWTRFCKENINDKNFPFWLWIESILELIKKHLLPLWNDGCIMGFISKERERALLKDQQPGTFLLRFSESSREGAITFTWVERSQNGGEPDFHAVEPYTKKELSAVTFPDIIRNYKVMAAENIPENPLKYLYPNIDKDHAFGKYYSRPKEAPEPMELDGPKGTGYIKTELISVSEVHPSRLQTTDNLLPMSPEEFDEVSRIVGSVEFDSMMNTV
Experimental: The compounds are selective for STAT3 over STAT1 in BT20 breast tumor cells. BT20 cells prepared as above and were treated with 5 μM of the compound of Example 1 for two hours then were treated with 25 ng/mL of interferon γ (IFNγ). […] (FIG. 4, bottom panel).

IL-6 = test: Inhibition of IL-6 expression in lung tumor cells (ELISA); assay type: cell-based, human; conditions: 5 μM; HCC-827
Experimental: Inhibition of IL-6 expression in lung tumor cells. HCC-827 cells were seeded in 6-well plates at a density of 4×10^5 cells/well. The following day, the media was replaced with fresh media containing low serum and treated the compound from Example 1 at a concentration of 5 μM. The cells were incubated at 37° C. and the supernatant was collected at 2, 4, 24, 48, and 72 hours post treatment. The supernatant was centrifuged at 2000 rpm for 3 minutes, transferred to fresh tubes and stored at −20 for further analysis. The supernatants were diluted six times with distilled water. The supernatants were then subjected to ELISA analysis for expression of Interleukin-6 (IL-6) as per the manufacturer's protocol (Hs Human IL-6 kit, R&D Systems, Minneapolis, Minn. USA, Cat #HS600B). The amount of secreted IL-6 was calculated and quantified based on the standards and plotted as bar graphs using Microsoft excel. […] Stat3 expresses IL-6 and IL-6 stimulates Stat3 activation, resulting in angiogenesis, cell cycling and cell survival.

[1] = tested on: SUM149 inflammatory breast tumor cells; test: Anchorage-independent growth in soft agar, SUM149; assay type: cell-based; conditions: 28 days
Experimental: Assay for anchorage-independent growth in soft agar Cells (5×10^5) were suspended in 1× DMEM/HEPES, 10% heat-inactivated FBS, 0.13% bicarbonate, and 0.33% BBL agar. The cells were plated on 1% base agar plates (60 mm) containing 1× DMEM/HEPES, 10% heat-inactivated FBS, and 1% BBL agar. Fresh serum-containing medium was fed to the cells on 3-day intervals. The dishes were then incubated at 37° C. with 5% CO2 for 28 days. The colonies that grew in soft agar were photographed and counted. Data are expressed as the number of colonies formed per plate±S.E.M. and three plates were counted per cell line.

[2] = tested on: xenografts of MDA-MB-468 cells; test: MDA-MB-468 xenograft in nude mice, intratumoral injection; assay type: in vivo
Experimental: After 15 days mice were separated into three groups. Group 1 received PBS, group 2 received 20% hydroxypropyl-β-cyclodextrin (Trappsol) in PBS and group 3 received 10 mM of the compound in 20% Trappsol/PBS. Injections of 50 μL were made directly into the tumors. PBS is a phosphate buffered saline having pH7. Mice were treated daily for 5 days, given two days of rest and were treated for 5 days. On day 16 mice were treated and two hours later tumors were harvested, divided into two parts. The first part was frozen and the other was fixed in formalin for immunohistochemistry. Average tumor volume increased 2.3 and 2.5-fold in PBS and Trappsol/PBS vehicle controls, respectively.
Efficacy of Compound of Example 1 in animal models. […] Nu/nu Nude mice were injected in the mammary fat pad with 2×10^6 MDA-MB-468 cells suspended in matrigel. After 15 days mice were separated into three groups. Group 1 received PBS, group 2 received 20% hydroxypropyl-β-cyclodextrin (Trappsol) in PBS and group 3 received 10 mM of the compound of Example 1 in 20% Trappsol/PBS. PBS is a phosphate buffered saline with pH7. Injections of 50 μL were made directly into the tumors. Mice were treated daily for 5 days, given two days of rest and were treated for 5 days. On day 16 mice were treated and two hours later tumors were harvested, divided into two parts. The first part was frozen and the other was fixed in formalin for immunohistochemistry.

VEGF = test: Inhibition of VEGF expression in lung tumor cells (ELISA); assay type: cell-based, human; conditions: single dose of 5 μM; HCC-827
Experimental: Inhibition of VEGF expression in lung tumor cells. HCC-827 were seeded in 6-well plates at a density of 4×10^5 cells. The following day, the media was replaced with fresh media containing low serum and treated either the compound from example 16 at a concentration of 5 μM. The cells were incubated at 37° C. and the supernatant was collected at 2, 4, 24, 48 and 72 hours post treatment. The supernatant was centrifuged at 2000 rpm for 3 minutes, transferred to fresh tubes and stored at −20 for further analysis. The supernatants were diluted six times with distilled water.

HUVEC cells = test: Inhibition of tube formation in HUVEC cells; assay type: cell-based; conditions: overnight; 0.01-5.0 μM tested
Experimental: Inhibition of tube formation in HUVEC cells. […] Briefly, 1×10^4 HUV endothelial cells were seeded on the surface of the polymerized EC matrix gel per well, treated with either DMSO or 0.01 μM, 0.1 μM, 0.2 μM, 0.5 μM, 1.0 μM, 2.0 μM, and 5.0 μM of the compound from Example 1 and the compound from Example 16. The cells were incubated overnight at 37° C. The next day the tubes were observed and the images were captured using a Nikon phase contrast inverted microscope.

Question: With `C/C(=C\C(=O)N[C@H]1CCc2cccc3c2N(C1=O)[C@H](C(=O)N[C@H](C)CCC(N)=O)C3)c1ccc(C(F)(F)P(=O)(OCOC(=O)C(C)(C)C)OCOC(=O)C(C)(C)C)cc1` [Example 1, (2E)-3-[4-[[bis[(2,2-dimethyl-1-oxopropoxy)methoxy]phosphinyl]difluoromethyl]phenyl]-but-2-enoyl-Haic-(R)-4-aminopentamide] as the compound, how does the “IFNγ-stimulated increase in phosphoStat1” value (STAT1) read?
Answer: did not inhibit

Question: And the “time for which IL-6 expression is inhibited” value (IL-6)?
Answer: 48 h

Question: What about the “colony formation in soft agar” value [1] of the same compound?
Answer: inhibition of colony formation

Question: What about the “growth of breast tumor xenograft” value ([2]; 10 mM in 20% Trappsol/PBS, 50 μL intratumoral) of the same compound?
Answer: inhibited; also recorded: inhibits the growth

Question: What about the “increase in average tumor volume” value ([2]; 10 mM in 20% Trappsol/PBS, 50 μL intratumoral, vehicles 2.3 and 2.5-fold) of the same compound?
Answer: 1.6 fold

Question: What about the “tumor center histology (cellularity, necrosis)” value ([2]; centers / interior of tumors) of the same compound?
Answer: necrosis; also recorded: notably acellular

Question: And the “tumor vascularity (CD31 staining, microvessels)” value ([2]; centers / interior of tumors)?
Answer: avascular

Question: And the “Ki-67 staining of proliferating cells” value ([2]; treated tumors)?
Answer: decrease in Ki-67 staining

Question: What about the “phosphorylation of STAT3 in treated tumors vs vehicle controls” value ([2]; tumors harvested 2 h after last treatment) of the same compound?
Answer: reduced; also recorded: strongly inhibited

Question: What does the source list for `CCCC[C@H](NC(=O)/C=C(\C)c1ccc(C(F)(F)P(=O)(OCOC(=O)C(C)(C)C)OCOC(=O)C(C)(C)C)cc1)C(=O)N1C[C@H]2CC2[C@H]1C(=O)N[C@@H](CCC(N)=O)[C@@H](C)OCc1ccccc1` (stereo partly drawn) [Example 16, (2E)-3-[4-[[bis[(2,2-dimethyl-1-oxopropoxy)methoxy]phosphinyl]difluoromethyl]phenyl]-but-2-enoyl-norleucinyl-(2S,3R,4S)-methanoprolinyl-(4S,5R)-4-amino-5-benzyloxyhexamide]?
Answer: time up to which expression and excretion of VEGF is inhibited (VEGF): up to 24 hr; concentration at which significant reduction in tube formation was observed (HUVEC cells): 2 µM

Source: US8841257B2, “Inhibitors of STAT3 and uses thereof” (Board of Regents, The University of Texas System, priority 2009, dated 2014)
